Data reported in patent US7750154B2, “Amide derivatives” (AstraZeneca AB, priority 2003, dated 2010).

Assays:
[1] = system: TNFα production in human whole blood; test: Human whole blood assay, LPS-stimulated TNFα production; format: cell-based; conditions: inhibition of TNFα production
Protocol: The ability of a test compound to inhibit TNFα production was also assessed in a human whole blood assay. Human whole blood secretes TNFα when stimulated with LPS. […] Plates were incubated for 30 minutes at 37° C. (humidified incubator), prior to addition of 20 μl LPS (final concentration 10 μg/ml). Culture medium was added to control wells. Six “LPS alone” and six “medium alone” controls were included on each plate. A known TNFα synthesis/secretion inhibitor was included in each test. Plates were incubated for 6 hours at 37° C. (humidified incubator). Plates were centrifuged (2000 rpm for 10 minutes) and 80 μl plasma removed and stored at −80° C. (Corning 3799 plates). TNFα levels were measured by ELISA using paired antibodies from R&D Systems (catalogue nos. MAB610 and BAF210).

p38α = target: T1, p38α (Homo sapiens, UniProt Q16539); test: In vitro enzyme assay, p38α kinase; format: biochemical
T1 construct: c-myc (N); 6His (N); made in house; host or cells: E. coli (PET vectors)
T1 sequence (Q16539 whole entry): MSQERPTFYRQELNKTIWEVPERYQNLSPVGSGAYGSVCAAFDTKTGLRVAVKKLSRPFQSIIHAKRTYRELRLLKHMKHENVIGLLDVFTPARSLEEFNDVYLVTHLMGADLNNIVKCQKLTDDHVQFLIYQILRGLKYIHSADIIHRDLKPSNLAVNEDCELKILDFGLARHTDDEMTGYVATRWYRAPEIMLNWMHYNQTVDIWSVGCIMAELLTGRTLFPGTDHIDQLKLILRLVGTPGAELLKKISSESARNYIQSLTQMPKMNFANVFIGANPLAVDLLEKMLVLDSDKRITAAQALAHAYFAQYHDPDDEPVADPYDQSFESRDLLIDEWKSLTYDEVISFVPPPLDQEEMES

IC50 [1] [nM]	IC50 (p38α) [nM]	Structure (SMILES)
351	81	Cc1ccc(C(=O)NC2(C)CC2)cc1-n1cnc2ccc(N3CCN(C)CC3)cc2c1=O [6 (a), 4-methyl-N-(1-methylcyclopropyl)-3-[6-(4-methylpiperazin-1-yl)-4-oxoquinazolin-3(4H)-yl]benzamide]
3710	277	Cc1ccc(NC(=O)c2ccnc(Cl)c2)cc1-n1cnc2ccc(N3CCN(C)CC3)cc2c1=O [Comparator Compound A, 3-[5-(2-chloropyrid-4-ylcarbonylamino)-2-methylphenyl]-6-(4-methylpiperazin-1-yl)-3,4-dihydroquinazolin-4-one, reference compound]
3850	41	Cc1ccc(NC(=O)c2cc(F)cc(F)c2)cc1-n1cnc2ccc(N3CCN(C)CC3)cc2c1=O [Comparator Compound B, 3-[5-(3,5-difluorobenzamido)-2-methylphenyl]-6-(4-methylpiperazin-1-yl)-3,4-dihydroquinazolin-4-one, reference compound]
34	8	CCCN1CCCN(c2ccc3ncn(-c4cc(C(=O)NC5CC5)ccc4C)c(=O)c3c2)CC1 [Example 7, N-cyclopropyl-4-methyl-3-[4-oxo-6-(4-propyl-1,4-diazepan-1-yl)quinazolin-3(4H)-yl]benzamide]
17	19	Cc1ccc(C(=O)NC2CC2)cc1-n1cnc2ccc(OCCN(C)C)cc2c1=O [Example 24, N-Cyclopropyl-3-[6-[2-(dimethylamino)ethoxy]-4-oxoquinazolin-3(4H)-yl]-4-methylbenzamide]
